Data reported in PubChem BioAssay AID248 (DTP/NCI, 2004).
Where “and” joins values, the source holds several entries; their conditions need not be identical. Equal values may be shown once. Inconclusive results and toxic doses are left out. Square brackets hold non-standard residues; d marks the D form. Peptide text beside a SMILES is read from it. ξ: configuration not given here. ξF = NC(Cc1ccccc1)C(=O)O

System: L1210 leukemia ip in BDF1 mice, survival T/C
Assay: NCI In Vivo Anticancer Drug Screen. Data for tumor model L1210 Leukemia (intraperitoneal) in B6D2F1 (BDF1) mice
Conditions: endpoint: mean survival time, higher = longer survival
In short: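 Value reflects the ratio of survival in compound-treated mice to survival in vehicle-treated controls, with both groups carrying the same transplanted tumor.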

[1] = dose: 100.0 mg/kg/injection, schedule: Q04DX003 (ip), vehicle: saline
[2] = dose: 200.0 mg/kg/injection, schedule: Q04DX003 (ip), vehicle: saline
[3] = dose: 400.0 mg/kg/injection, schedule: Q04DX003 (ip), vehicle: saline
[4] = dose: 100.0 mg/kg/injection, schedule: Q01DX001 (ip), vehicle: carboxymethylcellulose (CMC)
[5] = dose: 100.0 mg/kg/injection, schedule: Q01DX009 (ip), vehicle: Klucel (hydroxypropylcellulose) (HPC)
[6] = dose: 100.0 mg/kg/injection, schedule: Q04DX002 (ip), vehicle: Klucel (hydroxypropylcellulose) (HPC)
[7] = dose: 200.0 mg/kg/injection, schedule: Q01DX009 (ip), vehicle: Klucel (hydroxypropylcellulose) (HPC)
[8] = dose: 200.0 mg/kg/injection, schedule: Q04DX002 (ip), vehicle: Klucel (hydroxypropylcellulose) (HPC)
[9] = dose: 400.0 mg/kg/injection, schedule: Q01DX009 (ip), vehicle: Klucel (hydroxypropylcellulose) (HPC)
[10] = dose: 400.0 mg/kg/injection, schedule: Q04DX002 (ip), vehicle: Klucel (hydroxypropylcellulose) (HPC)

## O=NN(CCF)C(=O)NC1CCS(=O)(=O)CC1
dose: 1.12 mg/kg/injection, schedule: Q01DX015 (ip), vehicle: other
  T/C: 119 % of control
dose: 1.76 mg/kg/injection, schedule: Q01DX015 (ip), vehicle: other
  T/C: 179 % of control
dose: 1.9 mg/kg/injection, schedule: Q01DX001 (ip), vehicle: saline with Tween-80
  T/C: 201 % of control
dose: 2.0 mg/kg/injection, schedule: Q01DX001 (ip), vehicle: other
  T/C: 118 % of control
dose: 2.68 mg/kg/injection, schedule: Q01DX015 (ip), vehicle: other
  T/C: 309 % of control and 311 % of control
dose: 3.52 mg/kg/injection, schedule: Q02DX008 (ip), vehicle: other
  T/C: 231 % of control and 246 % of control
dose: 3.75 mg/kg/injection, schedule: Q01DX001 (ip), vehicle: other
  T/C: 160 % of control
dose: 3.8 mg/kg/injection, schedule: Q01DX001 (ip), vehicle: saline with Tween-80
  T/C: 207 % of control
dose: 4.0 mg/kg/injection, schedule: Q01DX015 (ip), vehicle: other
  T/C: 422 % of control and 644 % of control
dose: 4.7 mg/kg/injection, schedule: Q## X004 (ip), vehicle: other
  T/C: 268 % of control
dose: 5.0 mg/kg/injection, schedule: Q01DX001 (ip), vehicle: other
  T/C: 163 % of control
dose: 5.36 mg/kg/injection, schedule: Q02DX008 (ip), vehicle: other
  T/C: 484 % of control and 538 % of control
dose: 5.6 mg/kg/injection, schedule: Q## X032 (ip), vehicle: other
  T/C: 261 % of control
dose: 6.0 mg/kg/injection, schedule: Q01DX015 (ip), vehicle: other
  T/C: 290 % of control and 433 % of control
dose: 6.0 mg/kg/injection, schedule: Q## X032 (ip), vehicle: other
  T/C: 153 % of control
dose: 7.0 mg/kg/injection, schedule: Q## X004 (ip), vehicle: other
  T/C: 519 % of control and 532 % of control
dose: 7.5 mg/kg/injection, schedule: Q01DX001 (ip), vehicle: other
  T/C: 302 % of control
dose: 7.5 mg/kg/injection, schedule: Q01DX001 (ip), vehicle: saline with Tween-80
  T/C: 557 % of control
dose: 8.0 mg/kg/injection, schedule: Q01DX001 (ip), vehicle: other
  T/C: 186 % of control
dose: 8.0 mg/kg/injection, schedule: Q02DX008 (ip), vehicle: other
  T/C: 426 % of control and 715 % of control
dose: 9.0 mg/kg/injection, schedule: Q01DX015 (ip), vehicle: other
  T/C: 339 % of control
dose: 9.4 mg/kg/injection, schedule: Q01DX001 (ip), vehicle: other
  T/C: 364 % of control
dose: 10.0 mg/kg/injection, schedule: Q01DX001 (ip), vehicle: other
  T/C: 340 % of control
dose: 10.7 mg/kg/injection, schedule: Q## X004 (ip), vehicle: other
  T/C: 605 % of control and 650 % of control
dose: 12.0 mg/kg/injection, schedule: Q02DX008 (ip), vehicle: other
  T/C: 330 % of control and 476 % of control
dose: 13.0 mg/kg/injection, schedule: Q## X032 (ip), vehicle: other
  T/C: 468 % of control
dose: 14.0 mg/kg/injection, schedule: Q01DX001 (ip), vehicle: other
  T/C: 577 % of control and 580 % of control
dose: 15.0 mg/kg/injection, schedule: Q01DX001 (ip), vehicle: other
  T/C: 365 % of control
dose: 15.0 mg/kg/injection, schedule: Q01DX001 (ip), vehicle: saline with Tween-80
  T/C: 666 % of control
dose: 16.0 mg/kg/injection, schedule: Q01DX001 (ip), vehicle: other
  T/C: 315 % of control
dose: 16.0 mg/kg/injection, schedule: Q## X004 (ip), vehicle: other
  T/C: 365 % of control and 580 % of control
dose: 18.0 mg/kg/injection, schedule: Q02DX008 (ip), vehicle: other
  T/C: 326 % of control
dose: 19.0 mg/kg/injection, schedule: Q## X032 (ip), vehicle: other
  T/C: 180 % of control and 430 % of control
dose: 20.0 mg/kg/injection, schedule: Q01DX001 (ip), vehicle: other
  T/C: 365 % of control
dose: 24.0 mg/kg/injection, schedule: Q## X004 (ip), vehicle: other
  T/C: 231 % of control and 271 % of control
dose: 29.0 mg/kg/injection, schedule: Q## X032 (ip), vehicle: other
  T/C: 115 % of control
dose: 30.0 mg/kg/injection, schedule: Q01DX001 (ip), vehicle: other
  T/C: 365 % of control
dose: 30.0 mg/kg/injection, schedule: Q01DX001 (ip), vehicle: saline with Tween-80
  T/C: 677 % of control
dose: 31.0 mg/kg/injection, schedule: Q01DX001 (ip), vehicle: other
  T/C: 315 % of control
dose: 36.0 mg/kg/injection, schedule: Q## X004 (ip), vehicle: other
  T/C: 253 % of control
dose: 40.0 mg/kg/injection, schedule: Q01DX001 (ip), vehicle: other
  T/C: 334 % of control

## COc1ccc(CN2CCCN(Cc3ccc(OC)cc3)C2c2cc(Br)c(OC)c(OC)c2)cc1
dose: 100.0 mg/kg/injection, schedule: Q01DX001 (ip), vehicle: acetone
  T/C: 94 % of control
dose: 200.0 mg/kg/injection, schedule: Q01DX001 (ip), vehicle: acetone
  T/C: 94 % of control
dose: 400.0 mg/kg/injection, schedule: Q01DX001 (ip), vehicle: acetone
  T/C: 94 % of control

## CSCCNC(=O)NS(=O)(=O)c1ccc(Cl)cc1
[1]
  T/C: 96 % of control
[2]
  T/C: 97 % of control
[3]
  T/C: 92 % of control

## NC(Cc1ccccc1)C(=O)NCC(=O)O (stereo not drawn) (H-[ξF]-Gly-OH)
dose: 100.0 mg/kg/injection, schedule: Q01DX009 (ip), vehicle: saline
  T/C: 105 % of control
[1]
  T/C: 98 % of control
dose: 200.0 mg/kg/injection, schedule: Q01DX009 (ip), vehicle: saline
  T/C: 105 % of control
[2]
  T/C: 97 % of control
dose: 400.0 mg/kg/injection, schedule: Q01DX009 (ip), vehicle: saline
  T/C: 102 % of control
[3]
  T/C: 97 % of control

## Cc1ccc(NC(=O)N(CCO)N=O)cc1
dose: 12.5 mg/kg/injection, schedule: Q01DX001 (ip), vehicle: carboxymethylcellulose (CMC)
  T/C: 110 % of control
dose: 25.0 mg/kg/injection, schedule: Q01DX001 (ip), vehicle: carboxymethylcellulose (CMC)
  T/C: 105 % of control
dose: 50.0 mg/kg/injection, schedule: Q01DX001 (ip), vehicle: carboxymethylcellulose (CMC)
  T/C: 103 % of control and 108 % of control
[4]
  T/C: 100 % of control

## COc1ccc([N+](=O)[O-])cc1NC(=O)NCc1cccnc1
dose: 100.0 mg/kg/injection, schedule: Q01DX001 (ip), vehicle: Klucel (hydroxypropylcellulose) (HPC)
  T/C: 91 % of control
[5]
  T/C: 93 % of control and 91 % of control
[6]
  T/C: 87 % of control and 92 % of control
dose: 100.0 mg/kg/injection, schedule: Q04DX003 (ip), vehicle: Klucel (hydroxypropylcellulose) (HPC)
  T/C: 103 % of control
dose: 200.0 mg/kg/injection, schedule: Q01DX001 (ip), vehicle: Klucel (hydroxypropylcellulose) (HPC)
  T/C: 93 % of control
[7]
  T/C: 93 % of control and 98 % of control
[8]
  T/C: 97 % of control and 87 % of control
dose: 200.0 mg/kg/injection, schedule: Q04DX003 (ip), vehicle: Klucel (hydroxypropylcellulose) (HPC)
  T/C: 100 % of control
dose: 400.0 mg/kg/injection, schedule: Q01DX001 (ip), vehicle: Klucel (hydroxypropylcellulose) (HPC)
  T/C: 90 % of control
[9]
  T/C: 93 % of control and 95 % of control
[10]
  T/C: 97 % of control and 92 % of control
dose: 400.0 mg/kg/injection, schedule: Q04DX003 (ip), vehicle: Klucel (hydroxypropylcellulose) (HPC)
  T/C: 101 % of control

## CCOC(=O)C(=O)Nc1ncn[nH]1
dose: 100.0 mg/kg/injection, schedule: Q01DX005 (ip), vehicle: Klucel (hydroxypropylcellulose) (HPC)
  T/C: 95 % of control
[5]
  T/C: 96 % of control
[6]
  T/C: 96 % of control
dose: 200.0 mg/kg/injection, schedule: Q01DX005 (ip), vehicle: Klucel (hydroxypropylcellulose) (HPC)
  T/C: 98 % of control
[7]
  T/C: 104 % of control
[8]
  T/C: 90 % of control
dose: 400.0 mg/kg/injection, schedule: Q01DX005 (ip), vehicle: Klucel (hydroxypropylcellulose) (HPC)
  T/C: 103 % of control
[9]
  T/C: 93 % of control
[10]
  T/C: 101 % of control

## CC(C)CC(N)C(=O)O (stereo not drawn)
[4]
  T/C: 87 % of control
dose: 200.0 mg/kg/injection, schedule: Q01DX001 (ip), vehicle: carboxymethylcellulose (CMC)
  T/C: 91 % of control
dose: 400.0 mg/kg/injection, schedule: Q01DX001 (ip), vehicle: carboxymethylcellulose (CMC)
  T/C: 91 % of control

## C[N+]1(CCNC2=CC(=O)C(NCC[N+]3(C)CCOCC3)=CC2=O)CCOCC1
dose: 5.0 mg/kg/injection, schedule: Q01DX001 (ip), vehicle: saline
  T/C: 103 % of control
dose: 10.0 mg/kg/injection, schedule: Q01DX001 (ip), vehicle: saline
  T/C: 101 % of control
dose: 20.0 mg/kg/injection, schedule: Q01DX001 (ip), vehicle: saline
  T/C: 101 % of control
dose: 40.0 mg/kg/injection, schedule: Q01DX001 (ip), vehicle: saline
  T/C: 101 % of control
dose: 80.0 mg/kg/injection, schedule: Q01DX001 (ip), vehicle: saline
  T/C: 97 % of control

## O=C(Nc1cccc(C(F)(F)F)c1)C(Br)C(Br)c1ccccc1 (stereo not drawn)
[5]
  T/C: 103 % of control
[7]
  T/C: 100 % of control
